From patent publication US4883796A, “Oxime ethers of 2,6-dioxabicyclo(3.3.0)octanones, and compositions and methods for treatment of a cardiac disease or circulatory with them” (Heinrich Mack Nachf., priority 1987, dated 1989)

Key:
[1] = tested on: isolated aorta strips; assay: inhibition of potassium chloride-induced contractions on isolated aorta strips, rabbit; assay type: cell-based; conditions: read-out: ED50, inhibition of potassium chloride-induced contractions
[2] = tested on: isolated aorta strips; assay: inhibition of potassium chloride-induced contractions on isolated aorta strips, rat; assay type: cell-based; conditions: read-out: ED50, inhibition of potassium chloride-induced contractions
[3] = Cardiovascular effects after i.d. administration to narcotised rats with opened thorax and artificial respiration; assay type: in vivo; conditions: 30 mg/kg i.d.
From the text: |Cardiovascular effects of example 3 after i.d. administration to |narcotised rats (Pentobarbital) with opened thorax and artificial |respiration.

[4] = Cardiovascular effects after intravenous administration to narcotised rats with opened thorax and artificial respiration; assay type: in vivo; conditions: 1.0 mg/kg i.v.
From the text: |Cardiovascular effects of the compound of example 3 after intravenous |administration to narcotised rats (Pentobarbital) with opened thorax and |artificial respiration.

[5] = orientating toxicity, mice, perorally; conditions: mouse, in vivo, po, read-out: dose withstood without clinical symptoms and without fatalities
[6] = tested on: Lypressin-induced T-wave elevation in the ECG; assay: Influence on the Lypressin-induced T-wave elevation in the ECG of narcotised rats; assay type: in vivo
Description: Influence on the T-wave elevation in the ECG of narcotised
rats, which was induced by intravenous bolus injection of
Lypressin. The substances were administered perorally 15
minutes and at various times before the Lypressin injection

[7] = Influence on systolic arterial pressure and heart rate of conscious normotensive beagle dogs, perorally; assay type: in vivo; conditions: 5.0 mg/kg perorally; for HR (heart rate): 0 h value 95 ± 8; for SAP (systolic arterial pressure): 0 h value 137 ± 7
Description: Influence on the systolic arterial pressure (SAP) and the heart rate
(HR) of concious normotensive beagle dogs. Substance was administered

[8] = Reduction of the arterial mean pressure in narcotised rabbits, i.d.; assay type: in vivo; conditions: Oryctolagus cuniculus, intraduodenal, read-out: ED30 (mmHg), reduction of the arterial mean pressure
Description: Reduction of the arterial mean pressure in narcotised rabbits.
The substance was administered i.d.

[9] = tested on: Isoprenaline tachycardia; assay: Inhibition of Isoprenaline tachycardia in narcotised, despinalised rats; assay type: in vivo; conditions: Rattus norvegicus, prophylactic
From the text: Inhibition of Isoprenaline tachycardia in narcotised,
despinalised rats after prophylactic, intravenous or
intraduodenal application

CC(C)NCC(O)CON=C1COC2C(O[N+](=O)[O-])COC12 (stereo not drawn) [Example 2, 4-(2-Hydroxy-3-isopropylamino-propyl)-oximino-2,6-dioxabicyclo[3.3.0]octan-8-exo-ol-nitrate]
IC50 [1]: 4000 µM | IC50 [2]: 472 µM

CC(C)(C)NCC(O)CON=C1CO[C@H]2[C@@H]1OC[C@H]2O[N+](=O)[O-] (stereo partly drawn) [Example 3, 4-(3-tert.-Butylamino-2-hydroxy-propyl)-oximino-2,6-dioxabicyclo[3.3.0]octan-8-endo-ol-nitrate]
BAF, changes [3]: -23 ± 5 mL/min | BAF, length of action [3]: > 167 min | BAF, maximum efficacy [3]: 42 ± 8 min | CO, changes [3]: -0.09 ± 0.02 L/min | CO, length of action [3]: > 167 min | CO, maximum efficacy [3]: 62 ± 8 min | HR changes [3]: -23 ± 4 beats/min | HR, length of action [3]: > 167 min | HR, maximum efficacy [3]: 78 ± 44 min | LV dp/dt, changes [3]: -879 ± 90 mmHg/s | LV dp/dt, length of action [3]: > 132 min | LV dp/dt, maximum efficacy [3]: 76 ± 10 min | LVEDP, changes [3]: -2.3 ± 0.9 mmHg | LVEDP, length of action [3]: 77 ± 8 min | LVEDP, maximum efficacy [3]: 38 ± 27 min | LVP, changes [3]: -38 ± 11 mmHg | LVP, length of action [3]: > 153 min | LVP, maximum efficacy [3]: 65 ± 17 min | MAP, changes [3]: -25 ± 4 mmHg | MAP, length of action [3]: > 167 min | MAP, maximum efficacy [3]: 58 ± 12 min | PAP, changes [3]: -4.3 ± 5 mmHg | PAP, length of action [3]: 111 ± 16 min | PAP, maximum efficacy [3]: 33 ± 11 min | SV, changes [3]: +0.5 ± 0.07 ml/min | SV, length of action [3]: > 167 min | SV, maximum efficacy [3]: 33 ± 3 min | TPVR, changes [3]: -23 ± 3 mmHg/ml | TPVR, length of action [3]: > 136 min | TPVR, maximum efficacy [3]: 39 ± 5 min | CO (cardiac minute volume), efficacy of the substance ([3]; previous value 0.75 ± 0.03): 0.66 ± 0.05 L/min | LVEDP (left ventricular end diastolic pressure), efficacy of the substance ([3]; previous value 3.8 ± 1): 1.5 ± 2 mmHg | SV (cardiac output), efficacy of the substance ([3]; previous value 5.3 ± 0.4): 5.8 ± 0.3 mL/min | PAP (blood pressure in the A. pulmonalis), efficacy of the substance ([3]; previous value 22.8 ± 6): 18.5 ± 7 mmHg | BAF (blood flow in the A femoralis), efficacy of the substance ([3]; previous value 70 ± 4): 47 ± 23 mL/min | MAP (mean arterial blood pressure), efficacy of the substance ([3]; previous value 116 ± 7): 91 ± 12 mmHg | LVP (left ventricular blood pressure), efficacy of the substance ([3]; previous value 133 ± 9): 95 ± 10 mmHg | HR (cardiac frequency), efficacy of the substance ([3]; previous value 142 ± 5): 119 ± 7 beats/min | TPVR (total peripheral vascular resistence), efficacy of the substance ([3]; previous value 155 ± 8): 132 ± 10 mmHg/ml | LV dp/dt (maximum left ventricular pressure increase rate), efficacy of the substance ([3]; previous value 2345 ± 100): 1466 ± 189 mmHg/s | BAF, changes [4]: -34 ± 5 mL/min | BAF, length of action [4]: 109 min | BAF, maximum efficacy [4]: 1.3 ± 0.3 min | CO, changes [4]: -0.09 ± 0.02 L/min | CO, length of action [4]: 113 ± 21 min | CO, maximum efficacy [4]: 5 ± 2 min | HR changes [4]: -13 ± 10 beats/min | HR, length of action [4]: > 114 min | HR, maximum efficacy [4]: 7 ± 3 min | LV dp/dt, changes [4]: -811 ± 116 mmHg/s | LV dp/dt, length of action [4]: 107 ± 12 min | LV dp/dt, maximum efficacy [4]: 6.8 ± 5 min | LVEDP, changes [4]: 0.7 ± 0.7 mmHg | LVEDP, length of action [4]: 51 ± 28 min | LVEDP, maximum efficacy [4]: 9.3 ± 8 min | LVP, changes [4]: -38 ± 2 mmHg | LVP, length of action [4]: 103 ± 28 min | LVP, maximum efficacy [4]: 1.7 ± 0.4 min | MAP, changes [4]: -36 ± 20 mmHg | MAP, length of action [4]: 111 ± 15 min | MAP, maximum efficacy [4]: 1.2 ± 0.0 min | PAP, changes [4]: -5 ± 2 mmHg | PAP, length of action [4]: 50 ± 18 min | PAP, maximum efficacy [4]: 3.0 ± 0.1 min | SV, changes [4]: +0.3 ± 0.5 ml/min | SV, length of action [4]: 31 ± 24 min | SV, maximum efficacy [4]: 2 ± 1 min | TPVR, changes [4]: -43 ± 4 mmHg/ml | TPVR, length of action [4]: 13 ± 8 min | TPVR, maximum efficacy [4]: 1.0 ± 1.0 min | CO (cardiac minute volume), efficacy of the substance ([4]; previous value 0.83 ± 0.04): 0.74 ± 0.08 L/min | LVEDP (left ventricular end diastolic pressure), efficacy of the substance ([4]; previous value 3.8 ± 1.0): 3.1 ± 1.0 mmHg | SV (cardiac output), efficacy of the substance ([4]; previous value 6.0 ± 0.4): 6.3 ± 0.6 mL/min | PAP (blood pressure in the A. pulmonalis), efficacy of the substance ([4]; previous value 22 ± 3): 17 ± 2 mmHg | BAF (blood flow in the A femoralis), efficacy of the substance ([4]; previous value 73 ± 16): 40 ± 11 mL/min | MAP (mean arterial blood pressure), efficacy of the substance ([4]; previous value 117 ± 5): 81 ± 5 mmHg | LVP (left ventricular blood pressure), efficacy of the substance ([4]; previous value 130 ± 12): 92 ± 12 mmHg | HR (cardiac frequency), efficacy of the substance ([4]; previous value 140 ± 8): 127 ± 4 beats/min | TPVR (total peripheral vascular resistence), efficacy of the substance ([4]; previous value 142 ± 9): 99 ± 6 mmHg/ml | LV dp/dt (maximum left ventricular pressure increase rate), efficacy of the substance ([4]; previous value 2558 ± 141): 1747 ± 84 mmHg/s | NOAEL [5]: 500 mg/kg | ED50 ([6]; Rattus norvegicus, po, 0.25 h, perorally 15 minutes before Lypressin): 50.8 mg/kg | Length of action at ED50-Dose ([6]; perorally): 240 min | HR changes ([7]; 0.5 h): -13 ± 2 Schl/M | SAP changes ([7]; 0.5 h): -28 ± 6 mmHg | HR (heart rate) ([7]; 0.5 h): 82 ± 7 Schl/M | SAP (systolic arterial pressure) ([7]; 0.5 h): 109 ± 4 mmHg | HR changes ([7]; 1 h): -20 ± 5 Schl/M | SAP changes ([7]; 1 h): -31 ± 5 mmHg | HR (heart rate) ([7]; 1 h): 75 ± 5 Schl/M | SAP (systolic arterial pressure) ([7]; 1 h): 106 ± 2 mmHg | HR changes ([7]; 2 h): -24 ± 6 Schl/M | SAP changes ([7]; 2 h): -21 ± 2 mmHg | HR (heart rate) ([7]; 2 h): 70 ± 6 Schl/M | SAP (systolic arterial pressure) ([7]; 2 h): 116 ± 5 mmHg | HR changes ([7]; 3 h): -19 ± 5 Schl/M | SAP changes ([7]; 3 h): -15 ± 4 mmHg | HR (heart rate) ([7]; 3 h): 76 ± 4 Schl/M | SAP (systolic arterial pressure) ([7]; 3 h): 122 ± 4 mmHg | HR changes ([7]; 4 h): -14 ± 4 Schl/M | SAP changes ([7]; 4 h): -9 ± 3 mmHg | HR (heart rate) ([7]; 4 h): 81 ± 4 Schl/M | SAP (systolic arterial pressure) ([7]; 4 h): 128 ± 7 mmHg | ED (30 mmHg) [8]: 22.8 mg/kg | ED50 ([9]; iv): 4.6 mg/kg | ED50 ([9]; i.d.): 74.6 mg/kg
